{"source": "patent US20110054193A1", "about": "“STATIN PRODUCTION” (priority 2008, published 2011)", "key": {"[1]": {"tested_on": "Penicillium chrysogenum ΔhdfAΔ Pc18g05230", "assay": "Compactin sensitivity of Penicillium chrysogenum strains, growth in liquid media", "type": "cell-based", "conditions": "mutant for Pc18g05230 (SEQ ID NO 1); liquid media with different amounts of compactin; 2 days of growth at 25 C", "experimental": "(§1) Fungal growth was performed in a mineral medium, containing (g/L): glucose (5); lactose (35); urea (4.5); (NH4)2SO4 (1.1); Na2SO4 (2.9); KH2PO4 (5.2); K2HPO4 (4.8) and 10 mL/L of a trace element solution containing (in g/l): citric acid (150); FeSO4.7H2O (15); MgSO4.7H2O (150); H3BO3 (0.0075); CuSO4.5H2O (0.24); CoSO4.7H2O (0.375); ZnSO4.7H2O (5); MnSO4.H2O (2.28); CaCl2.2H2O (0.99); pH before sterilization 6.5. Oxoid agar was added at 15 g/l to solidify the medium.\n(§2) Compactin was maintained as a stock solution at 20 g/L in ethanol at −20 C.\nThe gene Pc18g05230 was identified as a HMGR encoding gene. In order to prevent the transcription of this gene a selection marker gene was inserted between the promoter and the open reading frame (ORF). To this end the promoter and the ORF were PCR amplified using the oligonucleotides SEQ ID NO 5 plus 6 and SEQ ID NO 7 plus 8, respectively (see FIG. 1). Phusion Hot-Start Polymerase (Finnzymes) was used to amplify the fragments. The fragments obtained are 1539 and 2514 base pairs (bp) in length (SEQ ID NO 31 and SEQ ID NO 32) and contain a 14 bp tail suitable for the so-called STABY cloning method (Eurogentec). From the standard STABY vector, pSTC1.3, two derivatives were obtained. One, pSTamdSL (SEQ ID NO 39), was used for cloning the PCR amplified promoter (SEQ ID NO 31). […]"}, "[2]": {"tested_on": "Penicillium chrysogenum ΔhdfAΔ Pc16g05060", "assay": "Compactin sensitivity of Penicillium chrysogenum strains, growth in liquid media", "type": "cell-based", "conditions": "mutant for Pc16g05060 (SEQ ID NO 9); liquid media with different amounts of compactin; 2 days of growth at 25 C", "experimental": "as §1, §2\nThe gene Pc16g05060 was identified as a HMGR encoding gene. In order to prevent the transcription of this gene a selection marker gene was inserted between the promoter and the open reading frame (ORF). To this end the promoter and the ORF were PCR amplified using the oligonucleotides SEQ ID NO 13 plus 14 and SEQ ID NO 15 plus 16, respectively (see FIG. 1). Phusion Hot-Start Polymerase (Finnzymes) was used to amplify the fragments. The fragments obtained are 1539 and 1514 base pairs (bp) in length (SEQ ID NO 35 and SEQ ID NO 36) and contain a 14 bp tail suitable for the so-called STABY cloning method (Eurogentec).\nSpores of the Penicillium chrysogenum mutants for both HMGR encoding genes, Pc18g05230 (SEQ ID NO 1) and Pc16g05060 (SEQ ID NO 9), were inoculated in liquid media with different amounts of compactin."}}, "data": [{"molecule": "CC[C@H](C)C(=O)O[C@H]1CCC=C2C=C[C@H](C)[C@H](CC[C@@H]3C[C@@H](O)CC(=O)O3)[C@H]21", "note": "[Compactin, compactin]", "values": [{"measurement": "compactin sensitivity of the mutant, in words", "setting": "[1]", "result": "increased compactin sensitivity"}, {"measurement": "compactin sensitivity of the mutant, in words", "setting": "[2]", "result": "increased compactin sensitivity"}]}]}
